US5945436A, “Pyridylmethyl nitriles, amides and thioamides useful as fungicides” (Uniroyal Chemical Company, Inc., priority 1997, dated 1999)

Legend:
Uromyces phaseoli = assay: Bean rust fungus eradicant test (URO PHA); type: in vivo; conditions: pinto bean, eradicant spray 2 days after inoculation, 1,000 mg/l; for pest or weed control at 1000 µg/mL: Uromyces phaseoli, 216 h, read-out: Percent Reduction of Disease, URO PHA
Experimental: Compositions containing Compounds Nos. 1-81 were prepared by dissolving 0.24 grams of each of the compounds in 8 ml of acetone or other suitable inert solvent. Each of the resultant solutions was treated with 3 drops of TWEEN 20 (ethoxylated ethylene sorbitan monolaurate, a non-ionic surfactant)(I.C.I.), and water was added to form an emulsion. The degree of dilution with water was dictated by the desired concentration of the compound in the composition. The greater the quantity of water added, the lower the concentration of the compound in the composition, reported in milligrams per liter (mg/l) A plurality of pots were each planted with two pinto bean plants, Phaseolus vulgaris, each, susceptible to rust disease. When the plants were 7 days old, at the primary leaf stage of growth, they were all sprayed with a suspension containing 20,000 spores of the bean rust fungus, Uromyces phaseoli, per ml. All the pots were then incubated in a controlled environmental chamber, maintained at 99% humidity and 21° C., for 24 hours to allow infection to occur. The plants were then removed from the incubator and allowed to dry. Two days after inoculation each of the infected plants was then either sprayed with one of the compositions of Example 9, at a dosage of 1,000 mg/l, or left unsprayed. The unsprayed plants acted as controls. All of the sprayed and unsprayed plants were then placed in a greenhouse at 21° C. for nine days to allow the disease to develop. […] Control of disease was determined by comparing treated plants with the untreated controls. The results, expressed as percent reduction of disease, are summarized in Table II under the heading "URO PHA".

Erysiphe polygoni = assay: Powdery mildew on pinto bean, foliar application (ERY POL); type: in vivo; conditions: similar procedure as barley (1,000 mg/l); for pest or weed control at 1000 µg/mL: Erysiphe polygoni, read-out: Percent Reduction of Disease, ERY POL
Experimental: Compositions containing Compounds Nos. 1-81 were prepared by dissolving 0.24 grams of each of the compounds in 8 ml of acetone or other suitable inert solvent. Each of the resultant solutions was treated with 3 drops of TWEEN 20 (ethoxylated ethylene sorbitan monolaurate, a non-ionic surfactant)(I.C.I.), and water was added to form an emulsion. The degree of dilution with water was dictated by the desired concentration of the compound in the composition. The greater the quantity of water added, the lower the concentration of the compound in the composition, reported in milligrams per liter (mg/l) Ten plants of "Robust" variety barley were planted in each of a plurality of pots. Each pot was then either sprayed with one of the compositions of Example 9, at a composition concentration of 1,000 mg/l, or left unsprayed. For each pot sprayed, one pot was left unsprayed as a control. After the leaves of the sprayed pots were dried, the sprayed pots and the unsprayed control pots were placed in a greenhouse maintained at 21° C. All the pots were then inoculated with barley powdery mildew fungus, Erysiphe graminis. This inoculation was accomplished by distributing spores of the fungus over the leaves of the plants to be tested from plants which had previously been infected with the mildew disease. […] Again, percent control was computed by comparing the treatment scores with the scores of the untreated controls. The results are summarized in Table II under the heading "ERY GRA". Using a similar procedure as described above for the barley, pinto bean plants were prepared, treated and inoculated with the fungus Erysiphe polygoni. The results of this testing are summarized in Table II under the heading "ERY POL".

Pyricularia oryzae = assay: whole plant or invertebrate; type: in vivo; conditions: for pest or weed control at 1000 µg/mL: Pyricularia oryzae, in Hordeum vulgare, foliar, 216 h, read-out: Percent Reduction of Disease, PYR ORY, barley, foliar, 1,000 mg/l; for Percent Reduction of Disease, PYR ORY: barley, foliar, 1,000 mg/l
Septoria nodorum = assay: Fungal growth inhibition, treated disc on agar (SEP NOD); type: cell-based; conditions: disc dipped in 500 mg/l, 29° C.; for inhibition at 500 µg/mL: Parastagonospora nodorum, read-out: Percent Growth Inhibition, SEP NOD
Excerpt: (§1) Filter paper discs, each 11 mm. in diameter, were dipped in each of the test solutions. The discs were allowed to air dry to drive off the acetone solvent. A number of untreated discs were used as controls.
(§2) The treated and untreated discs were then placed on agar plates and one of the following fungus species: Septoria nodorum (SEP NOD), Botrytis cinerea (BOT CIN), Fusarium oxysporum (FUS OXY), Pythium ultimum (PYT ULT), Rhizoctonia solani (RHI SOL), Colletotrichum gossypii (COL GOS), and Scierotinia minor (SCL MIN), was added to the center of each disc in the form of a culture plug with the fungus mat in contact with the paper of the test disc. Cercosporidium personatum (CER PER), was added to discs as a spore suspension (20,000 spores/ml) to the disc (two drops of spore suspension per disc), rather than a mycelial culture plug. The plates were then incubated at 29° C. in an oven.
(§3) With the exception of the discs containing Cercosporidium personatum, the discs were evaluated by first measuring the radius from the center of the fungus colony on the treated discs and on the untreated discs. Percent growth inhibition of each of the compounds tested was determined as a function of the difference between the radius of the fungus colony on the treated disc versus the radius of the fungus colony on the untreated disc.

Pythium ultimum = assay: Fungal growth inhibition, treated disc on agar (PYT ULT); type: cell-based; conditions: disc dipped in 500 mg/l, 29° C.; for inhibition at 500 µg/mL: Globisporangium ultimum, read-out: Percent Growth Inhibition, PYT ULT
Colletotrichum gossypii = assay: Fungal growth inhibition, treated disc on agar (COL GOS); type: cell-based; conditions: disc dipped in 500 mg/l, 29° C.; for inhibition at 500 µg/mL: Colletotrichum gossypii, read-out: Percent Growth Inhibition, COL GOS
Excerpt: as §1, §2, §3

Compound | pest or weed control at 1000 µg/mL (Uromyces phaseoli) [%] | pest or weed control at 1000 µg/mL (Erysiphe polygoni) [%] | pest or weed control at 1000 µg/mL (Pyricularia oryzae) [%] | inhibition at 500 µg/mL (Septoria nodorum) [%] | inhibition at 500 µg/mL (Pythium ultimum) [%] | inhibition at 500 µg/mL (Colletotrichum gossypii) [%] | Percent Reduction of Disease, URO PHA (Uromyces phaseoli) [%] | Percent Reduction of Disease, ERY POL (Erysiphe polygoni) [%] | Percent Reduction of Disease, PYR ORY (Pyricularia oryzae) [%] | Percent Growth Inhibition, SEP NOD (Septoria nodorum) [%] | Percent Growth Inhibition, PYT ULT (Pythium ultimum) [%] | Percent Growth Inhibition, COL GOS (Colletotrichum gossypii) [%]
CCCCC(C#N)(CCc1ccc(F)cc1)c1cccnc1 (stereo not drawn) [Compound 11] | 100 | 100 | 85 | 60 | 40 | 100 | – | – | – | – | – | –
CCCC(C#N)(CCCc1ccc(Cl)cc1)c1cccnc1 (stereo not drawn) [Compound 12] | 100 | 95 | 85 | 70 | 90 | 93 | – | – | – | – | – | –
CCCCC(C#N)(CCCc1ccc(Cl)cc1)c1cccnc1 (stereo not drawn) [Compound 13] | 100 | 100 | 85 | 75 | 10 | 93 | – | – | – | – | – | –
CCCC(C#N)(Cc1ccc(C(C)(C)C)cc1)c1cccnc1 (stereo not drawn) [Compound 14] | 33 | 100 | 100 | 0 | 10 | 5 | – | – | – | – | – | –
CCCC(C#N)(CCCc1ccccc1Cl)c1cccnc1 (stereo not drawn) [Compound 15, 2-chloro-α-propyl-(3-pyridinyl)benzene pentanenitrile] | 83 | 100 | 85 | 93 | 83 | 93 | – | – | – | – | – | –
CCCCCCC(C#N)(Cc1ccc(C(C)(C)C)cc1)c1cccnc1 (stereo not drawn) [Compound 16] | 0 | 100 | 20 | 45 | 45 | 42 | – | – | – | – | – | –
CCCC(C#N)(Cc1ccc(Oc2ccccc2)cc1)c1cccnc1 (stereo not drawn) [Compound 17] | 0 | 100 | 70 | 55 | 45 | 20 | – | – | – | – | – | –
C=CCC(C#N)(Cc1ccc(C(C)(C)C)cc1)c1cccnc1 (stereo not drawn) [Compound 18] | 0 | 100 | 85 | 5 | 40 | 10 | – | – | – | – | – | –
CCCCC(C#N)(Cc1ccc(C(C)(C)C)cc1)c1cccnc1 (stereo not drawn) [Compound 19] | 0 | 100 | 35 | 96 | 93 | 91 | – | – | – | – | – | –
CCCC(C#N)(CCc1ccccc1)c1ccncc1 (stereo not drawn) [Compound 25] | 17 | 17 | 0 | 19 | 0 | 72 | – | – | – | – | – | –
CCCCC(C#N)(CCc1ccccc1)c1ccncc1 (stereo not drawn) [Compound 26] | 0 | 17 | 0 | 45 | 0 | 75 | – | – | – | – | – | –
C=CCC(C#N)(CCc1ccc(OC)cc1)c1ccccn1 (stereo not drawn) [Compound 28] | – | – | – | – | – | – | 100 | 100 | 85 | 96 | 10 | 100
COc1ccc(CCC(C#N)(CC(C)C)c2ccccn2)cc1 (stereo not drawn) [Compound 29] | – | – | – | – | – | – | 100 | 100 | 85 | 83 | 0 | 95
CCCCCC(C#N)(CCc1ccc(OC)cc1)c1ccccn1 (stereo not drawn) [Compound 30] | – | – | – | – | – | – | 100 | 100 | 100 | 96 | 0 | 80
CCCCC(C#N)(CCc1ccc(OC)cc1)c1ccccn1 (stereo not drawn) [Compound 31] | – | – | – | – | – | – | 35 | 90 | 0 | 81 | 93 | 70
N#CC(CCCc1ccc(Cl)cc1)(CC1CC1)c1ccccn1 (stereo not drawn) [Compound 32] | – | – | – | – | – | – | 85 | 100 | 100 | 89 | 0 | 97
C=CCC(C#N)(CCc1ccc(C)cc1)c1cccnc1 (stereo not drawn) [Compound 33] | 100 | 100 | 85 | 96 | 50 | 100 | – | – | – | – | – | –
CCCCC(C#N)(CCc1ccc(C)cc1)c1cccnc1 (stereo not drawn) [Compound 34] | 100 | 100 | 0 | 100 | 0 | 100 | – | – | – | – | – | –
CCCCC(C#N)(CCc1ccc(OCC)cc1)c1cccnc1 (stereo not drawn) [Compound 35] | – | 100 | 55 | 90 | – | 97 | 90 | – | – | – | 0 | –
CCCCCCC(C#N)(CCc1ccc(OC)cc1)c1cccnc1 (stereo not drawn) [Compound 36] | 100 | 100 | 90 | 96 | 75 | 0 | – | – | – | – | – | –
COc1ccc(CCC(C#N)(CC2CC2)c2cccnc2)cc1 (stereo not drawn) [Compound 37] | 92 | 92 | 100 | 100 | 9 | 100 | – | – | – | – | – | –
C#CCC(C#N)(CCc1ccc(OC)cc1)c1cccnc1 (stereo not drawn) [Compound 38] | 0 | 92 | 17 | 100 | 100 | 100 | – | – | – | – | – | –
CC(C)CC(C#N)(CCc1ccc(F)cc1)c1cccnc1 (stereo not drawn) [Compound 39] | 92 | 92 | 100 | 8 | 44 | 75 | – | – | – | – | – | –
C=CCC(C#N)(CCc1ccc(OCC)cc1)c1cccnc1 (stereo not drawn) [Compound 40] | 17 | 92 | 92 | 100 | 61 | 100 | – | – | – | – | – | –
C#CCC(C#N)(CCc1ccc(F)cc1)c1cccnc1 (stereo not drawn) [Compound 41] | 0 | 100 | 92 | 63 | 9 | 100 | – | – | – | – | – | –
